Experimental findings from ChEMBL document CHEMBL1201862, “PubChem BioAssay data set” (2004) are described below.

Assay [1] addresses T1, Rac GTPase-activating protein 1 (Homo sapiens, UniProt Q9H0H5).
T1 sequence (Q9H0H5 whole entry): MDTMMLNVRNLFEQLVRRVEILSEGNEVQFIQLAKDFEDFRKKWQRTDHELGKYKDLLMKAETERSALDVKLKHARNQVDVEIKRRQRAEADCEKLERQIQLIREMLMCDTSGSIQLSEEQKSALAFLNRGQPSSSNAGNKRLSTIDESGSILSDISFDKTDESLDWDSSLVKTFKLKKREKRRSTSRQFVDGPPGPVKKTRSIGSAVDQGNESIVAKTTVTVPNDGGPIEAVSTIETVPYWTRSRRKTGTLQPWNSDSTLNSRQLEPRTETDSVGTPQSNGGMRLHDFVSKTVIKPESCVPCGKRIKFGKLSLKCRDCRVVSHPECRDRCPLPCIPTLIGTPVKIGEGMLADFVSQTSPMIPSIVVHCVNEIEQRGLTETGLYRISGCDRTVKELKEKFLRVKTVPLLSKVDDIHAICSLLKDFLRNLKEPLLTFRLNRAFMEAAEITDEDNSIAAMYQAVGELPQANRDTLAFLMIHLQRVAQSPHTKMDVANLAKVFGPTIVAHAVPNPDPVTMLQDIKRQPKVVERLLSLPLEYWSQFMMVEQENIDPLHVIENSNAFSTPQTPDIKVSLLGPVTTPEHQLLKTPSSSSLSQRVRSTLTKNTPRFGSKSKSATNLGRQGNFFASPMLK
Kind of assay: blockers of MgcRacGAP-driven Rac1 GTP hydrolysis – biochemical, ADP Hunter fluorescence, primary and confirmatory, confirmation (AID 624330). Type of assay: functional.

For assay [2], the target named is Cytochrome P450 2C9 (Homo sapiens, UniProt P11712).
Assay [3] addresses FAD-linked sulfhydryl oxidase ALR (Homo sapiens, UniProt P55789). Kind of assay: ALR-catalysed DTT oxidation blockers – biochemical, H2O2 detection, luminescence, cherry-pick, dose response (AID 493248).
Assay [4] can be described thus: luciferase reporter signal suppression in cells – H4 neuroglioma cells, luminescence, dose response (AID 1990). Type of assay: functional, cell-based.
A short description of assay [5]: Luminescence Cell-Based Dose Response HTS to Identify Inhibitors of 5'UTR Stem-Loop Driven Prion Protein mRNA Translation in H4 Neuroglioblastoma Cells. [Related pubchem assays: 1827 (Project Summary), 1813 (Primary HTS)]. In kind it is functional.
Assay [6] is described as follows: alpha-synuclein stem-loop luciferase translation blockers – H4 neuroglioma cells, luminescence, confirmation (AID 1988). In kind it is functional, cell-based.
Assay [7] deals with T2, Streptokinase A (Streptococcus pyogenes serotype M1, UniProt P10520).
T2 sequence (P10520 whole entry): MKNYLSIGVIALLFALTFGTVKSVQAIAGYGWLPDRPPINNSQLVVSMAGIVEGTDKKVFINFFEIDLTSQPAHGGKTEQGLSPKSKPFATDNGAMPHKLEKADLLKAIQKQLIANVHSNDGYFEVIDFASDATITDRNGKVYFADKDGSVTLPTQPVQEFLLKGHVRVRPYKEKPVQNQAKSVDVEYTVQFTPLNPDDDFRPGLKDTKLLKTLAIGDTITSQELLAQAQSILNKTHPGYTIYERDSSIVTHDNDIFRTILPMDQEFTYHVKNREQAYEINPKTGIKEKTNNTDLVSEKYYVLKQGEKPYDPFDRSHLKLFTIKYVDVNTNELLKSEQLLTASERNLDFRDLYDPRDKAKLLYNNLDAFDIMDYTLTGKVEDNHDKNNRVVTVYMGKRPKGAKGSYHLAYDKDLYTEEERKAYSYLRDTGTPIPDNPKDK
Kind of assay: viability-normalized secreted streptokinase activity reduction – plasminogen activation absorbance, OD405, dose response (AID 1914).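 Further: secreted streptokinase activity via plasminogen activation per viability signal from cell pellet.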 Type of assay: functional, Streptococcus pyogenes M1 GAS.

Assay [8] has as its system Streptococcus sp. 'group A'. Kind of assay: Streptococcus pyogenes SK(-)GAS viability under kanamycin – luminescence, BacTiterGlo, confirmation, counter-screen for streptokinase expression inhibitor project, dose response (AID 1900). Type of assay: functional, organism-based.
The subject of assay [9] is Streptococcus. Briefly: GAS UMAA2166 growth inhibition – luminescence, BacTiterGlo, counter-screen for streptokinase expression inhibitor project, dose response (AID 1915).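 Further: potency for reduction of bacterial viability or growth.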 Type of assay: functional, organism-based.
Assay [10] in a line: viability of uninfected HEp-2 cells – cell-based, HTS, cytotoxicity control for RSV inhibitor project, dose response (AID 2410). In kind it is functional. Conditions: human respiratory syncytial virus.
A short description of assay [11]: Luminescence Cell-Based Dose Response HTS to Identify Activators of Luciferase Translation or Activity in H4 […] Cells. [Related pubchem assays: 1829 (Project Summary), 1814 (Primary HTS)]. Type of assay: functional.
The test system of assay [12] is H4. Kind of assay: Luminescence Cell-Based Dose Response HTS to Identify Activators of 5'UTR Stem-Loop Driven Prion Protein mRNA Translation in H4 Neuroglioblastoma Cells. [Related pubchem assays: 1829 (Project Summary), 1814 (Primary HTS)]. In kind it is functional. Conditions: Homo sapiens.
Assay [13] deals with Cytochrome P450 3A4 (Homo sapiens, UniProt P08684).

The structures appear in SMILES notation. The source made the active and inactive calls. For most assays here, no stated cut-off is given here; in the data, actives have a measured EC50 and inactives only a lower limit.

By IC50 is commonly meant the concentration that gives 50% inhibition. As a reminder, the AC50 is the concentration giving half of the maximal activity seen. What is called EC50 is the concentration at which the effect is half-maximal. The CC50 is the concentration that lowers cell viability or growth by half.

Sequence of FAD-linked sulfhydryl oxidase ALR (P55789 whole entry): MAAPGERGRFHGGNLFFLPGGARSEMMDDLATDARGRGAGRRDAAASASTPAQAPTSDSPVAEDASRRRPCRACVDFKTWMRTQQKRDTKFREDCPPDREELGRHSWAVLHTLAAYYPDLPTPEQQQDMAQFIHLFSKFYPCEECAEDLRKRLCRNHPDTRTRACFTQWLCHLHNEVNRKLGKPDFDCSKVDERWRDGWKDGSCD
Sequence of Cytochrome P450 2C9 (P11712 whole entry): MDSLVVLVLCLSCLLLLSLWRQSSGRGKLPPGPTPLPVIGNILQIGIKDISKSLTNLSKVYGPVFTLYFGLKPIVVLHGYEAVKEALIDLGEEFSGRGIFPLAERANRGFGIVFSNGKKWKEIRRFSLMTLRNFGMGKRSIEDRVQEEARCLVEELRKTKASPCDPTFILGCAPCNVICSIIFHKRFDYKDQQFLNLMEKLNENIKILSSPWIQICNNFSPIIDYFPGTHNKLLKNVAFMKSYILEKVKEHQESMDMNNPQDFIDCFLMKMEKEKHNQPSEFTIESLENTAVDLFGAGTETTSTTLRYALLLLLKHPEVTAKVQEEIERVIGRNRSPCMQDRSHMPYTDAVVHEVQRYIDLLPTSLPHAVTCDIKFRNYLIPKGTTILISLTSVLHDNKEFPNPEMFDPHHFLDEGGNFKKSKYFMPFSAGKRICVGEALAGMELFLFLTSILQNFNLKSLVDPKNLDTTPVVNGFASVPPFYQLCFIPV
Sequence of Cytochrome P450 3A4 (P08684 whole entry): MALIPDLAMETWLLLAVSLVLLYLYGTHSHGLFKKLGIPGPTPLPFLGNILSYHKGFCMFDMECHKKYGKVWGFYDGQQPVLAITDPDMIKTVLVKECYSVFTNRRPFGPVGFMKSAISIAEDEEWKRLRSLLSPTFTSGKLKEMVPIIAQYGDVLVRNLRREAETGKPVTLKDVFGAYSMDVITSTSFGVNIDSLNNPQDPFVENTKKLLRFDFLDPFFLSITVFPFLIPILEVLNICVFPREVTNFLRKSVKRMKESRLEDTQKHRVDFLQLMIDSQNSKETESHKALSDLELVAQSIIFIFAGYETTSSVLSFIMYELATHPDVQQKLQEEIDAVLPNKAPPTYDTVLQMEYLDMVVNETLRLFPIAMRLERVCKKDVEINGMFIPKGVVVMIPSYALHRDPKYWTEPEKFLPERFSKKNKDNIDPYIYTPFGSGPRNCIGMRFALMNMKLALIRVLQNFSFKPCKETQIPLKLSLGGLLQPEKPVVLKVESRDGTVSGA

For the compound `COc1ccc2oc(=O)c(C(=O)Oc3ccc(NC(C)=O)cc3)cc2c1`, the IC50 in assay [1] was 24.5 µM (active). Also, the AC50 in assay [2] was 39.8 µM (inconclusive). With `O=C(O)CCn1cc(C=C2C(=O)NC(=O)NC2=O)c(-c2cc3ccccc3oc2=O)n1`, the AC50 in assay [3] is 0.109 µM (active). As for `COc1cccc(C(=O)Nc2ccc3[nH]c(O)nc3c2)c1OC`, the EC50 is < 0.1 µM (active) in [4] and > 120 µM (not active) in assay [5]. In the case of `CNC(=O)c1cccn(Cc2cccc(C(F)(F)F)c2)c1=O`, the EC50 in assay [6] is 14.6 µM (active); in assay [4], > 120 µM (not active); in assay [5], 42.8 µM (active). Turning to `CC(C)S(=O)(=O)c1csc(NC(=O)Nc2cc(Cl)ccc2Cl)c1Cl`, the EC50 was 7.69 µM (active) in [7], 1.3 µM (active) in assay [8] and 8.4 µM (active) in assay [9]. As for `Fc1ccc(-n2nnnc2S)cc1N1CCCC1`, in assay [3], the AC50 was 5.21 µM (active).

For `COc1ccccc1CNCC(=O)NCc1ccc(C)cc1`, the IC50 in assay [1] is 163 µM (active). `COc1ccc(CNc2ncc(-c3cccc([N+](=O)[O-])c3)n2C)c(OC)c1OC`: in assay [3], the AC50 is 0.035 µM (active). For the compound `CCc1ccc(NC(=O)C2CCN(S(=O)(=O)c3ccc4c(c3)NC(=O)CO4)CC2)cc1`, the EC50 in [6], in [4] and in assay [5] was > 120 µM (not active) each time.

For the compound `Cc1ccc(-c2csc(NCCc3nc4cc(Cl)c(Cl)cc4n3CCOCCO)n2)cc1`, in assay [10], the CC50 is 9.53 µM (active). Same read-out and setting: the figure for `COc1cc(N2CCCC2)c(OC)cc1/C=C(/C#N)c1cccc(Br)c1` is > 50 µM (active). In the case of `CC(C)n1cnc2c(NCc3ccccc3)nc(NCc3ccccc3)nc21`, the EC50 in [7] is > 150 µM (not active); in [8] it was 5.26 µM (active); in [9] it was > 150 µM (not active). As for `Cc1cc(C(=O)CC#N)c(C)n1-c1c(C)n(C)n(-c2ccccc2)c1=O`, the EC50 in assay [6], in assay [4] and in [5] was > 120 µM (not active) each time. Turning to `O=C(Nc1ccc2nn(-c3ccc(F)cc3)nc2c1)c1cccnc1`, the CC50 in assay [10] was > 50 µM (active). On to `COc1cc(C(=O)NNC(=S)NC(=O)c2ccccc2C)cc(OC)c1OC`, for which the results for the EC50 in [7], in [8] and in assay [9] were > 150 µM (not active), 2.06 µM (active) and 49.5 µM (active), respectively.

Regarding `Nc1cccc(Nc2ccccc2)c1`, the AC50 in assay [3] was 2.5 µM (active). For `COc1ccc(N2CCC(CN=C(S)Nc3cc(C)cc(C)c3)C2)cc1` (stereo not given), the IC50 in assay [1] is 108 µM (active). Consider `CC(=O)Nc1sc(NC(=O)c2ccc([N+](=O)[O-])cc2)nc1-c1cccs1`, for which the EC50 in assay [7], in [8] and in assay [9] was > 150 µM (not active) in each case. With `CCN(Cc1ccncc1)Cc1ccc(OC)cc1OC`, in assay [1], the IC50 is 117 µM (active). As for `FC(F)(F)c1cc(CCN2C(=S)NC[C@@H]2CC2CCCCC2)cc(C(F)(F)F)c1`, the EC50 in assay [7] is 7 µM (active). Consider `Fc1ccc(-c2ccnc3nc(-n4cccc4)nn23)cc1`, for which the EC50 in assay [6] is > 120 µM (not active); in [4], 39.7 µM (active); in assay [5] it was > 120 µM (not active).

With `COc1cccc(C2Nc3ccc4ccccc4c3C3=C2C(=O)CCC3)c1O` (stereo not given), the EC50 in assay [6] is 11.7 µM (active); in assay [4], 10 µM (active); in assay [5], 32.1 µM (active). Regarding `O=C(NN=C(S)Nc1ccc(Cl)c(Cl)c1)c1cccc([N+](=O)[O-])c1`, the CC50 in assay [10] was 7.46 µM (active).

Regarding `O=C(O)c1ccc(NC(=O)c2cn(-c3ccccc3)nc2-c2cccc(Cl)c2)cc1`, the CC50 in assay [10] was 33.6 µM (active). Regarding `COc1cccc(-n2cnc3cccc(N)c32)c1`, the AC50 in assay [3] was 24.2 µM (active). Regarding `Cc1[nH]c2ccccc2c1CCNS(=O)(=O)c1ccc(S(N)(=O)=O)cc1`, in assay [3], the AC50 is 2.77 µM (active). For `O=C(c1cnn2c(C(F)(F)F)cc(-c3ccc(F)cc3)nc12)N1CCc2ccccc2C1`, the EC50 was 37 µM (active) in [7], 14 µM (active) in [8] and > 150 µM (not active) in assay [9]. On to `O=C(O)CSc1nnc(NC(=O)c2ccc3c(c2)OCO3)s1`, for which the EC50 in assay [6] was 62.2 µM (active); in assay [4] it was 13 µM (active); in assay [5], 16.2 µM (active). Regarding `Cc1ccc(Nc2nnc(SCC(=O)c3ccc(Br)s3)s2)c(C)c1`, the CC50 in assay [10] is 24.4 µM (active).

Regarding `CC(C)(C)CC(C)(C)Nc1c(-c2ccc(O)cc2)nc2cnccn12`, the EC50 in assay [6] is 107 µM (active); in assay [4], 13.9 µM (active); in assay [5] it was 14.9 µM (active). As for `CN1CCN(C(=S)c2ccc(-c3cccc(Cl)c3Cl)o2)CC1`, in assay [10], the CC50 is 20.7 µM (active). With `CC(C)C(=O)Nc1ccc(C(=O)NNC(=S)NC(=O)c2cccs2)cc1`, the EC50 is > 150 µM (not active) in [7], 6.98 µM (active) in assay [8] and 34.8 µM (active) in assay [9]. For the compound `Cc1ccc(OCCN2CCN(C)CC2)c([N+](=O)[O-])c1`, in [1], the IC50 was 75.4 µM (active). Take `COc1ccc(C(=O)n2c(N)nc3ccccc32)cc1OC`: the concentration giving a half-maximal response (EC50) in assay [11] was 0.429 µM (active). In the case of `O=C(Cc1ccc(Cl)cc1)N1CCN(c2ccccc2)CC1`, the AC50 in assay [3] is 17.8 µM (active).

Consider `COc1ccc(CCN2CC3=C(C2=O)C(c2ccccc2)NC(=O)N3C)cc1OC` (stereo not given), for which the results for the EC50 in assay [6], in assay [4] and in assay [5] were > 120 µM (not active), 24.4 µM (active) and > 120 µM (not active), respectively.

On to `CC1CCCCN1S(=O)(=O)c1ccc(NC(=O)c2cccs2)cc1` (stereo not given), for which the CC50 in assay [10] was 25.1 µM (active).

On to `Nc1ccc2[nH]c(S)nc2c1`, for which the IC50 in assay [1] is 19.4 µM (active). For `Cc1ccc(C2Cc3cc(O)c(O)cc3CN2)cc1` (stereo not given), in assay [3], the AC50 is 4.2 µM (active).

Turning to `Sc1nnc2n1CCCN2`, the AC50 in assay [3] is 11.1 µM (active).

As to `CN(C)/C=N/c1ncnc2c1cnn2-c1ccc(C(F)(F)F)cn1`, the EC50 in [12] and in [11] was > 120 µM (not active) throughout. Take `COc1ccc(N)cc1NC(=O)CN1CCOCC1`: the IC50 in assay [1] was 118 µM (active). Turning to `COc1ncnc2c1ncn2CCCNc1ccc(C)c(C)c1`, in assay [1], the IC50 was 102 µM (active). As for `Cc1ccc(-n2nc3c(n2)/C(=N/O)CC/C3=N\O)cc1`, the EC50 in [11] is 1.05 µM (active). Regarding `Oc1ccc(/C=N/Nc2cccc3cccnc23)c(O)c1`, in [12], the EC50 was 18.7 µM (active). For the compound `OCCN(/C=N/C1=NN(c2cccc(C(F)(F)F)c2)CC1)CCO`, the IC50 in [1] is 30.9 µM (active). For the same compound, the values for the AC50 in assay [2] and in assay [13] were 0.0224 µM (inconclusive) and 14.1 µM (inconclusive), respectively. On to `COc1cc(/C=C/c2ccc(O)cc2)cc(OC)c1` [PTEROSTILBENE], for which the AC50 in [3] is 0.778 µM (active).
